Results taken from patent publication US10898498B2, “Slow release oxysterols and methods of use” (Warsaw Orthopedic, Inc., priority 2015, dated 2021).
“Also recorded” adds a separate entry of the source.

How the values were obtained:
[1] = test system: multipotent mesenchymal cells such as M2-10B4 (M2) marrow stromal cells and C3H10T1/2 embryonic fibroblasts; settings: M2-10B4 marrow stromal cells and C3H10T1/2 embryonic fibroblasts; cited from earlier work
[2] = test system: rat two-level spine model (posterolateral space, L3-L5); experiment: Rat two-level posterolateral spine fusion model, implants placed bilaterally; radiographs and manual palpation; type: in vivo; settings: for bone growth / bridging bone on radiographs: 4-week and 8-week timepoints; for spinal fusion by manual palpation evaluation of the spine segments: 8 weeks; for fusion observed (share of rat spines fused, manual palpation): matrix of Oxy133, collagen and ceramic wetted with sterile water, bilateral, 8-week sacrifice, 5/5 spines
Protocol: FIG. 6 illustrates uses of a formulation of malleable implants having 20 mg of Oxy133 on each side of the implant, in accordance with the malleable implants described herein. […] A dry composition of a matrix containing Oxy133, collagen and ceramic as described herein was prepared and wetted with sterile water to be implanted in rat spines as shown in FIG. 6. The wetted matrix was cut in half with a razor blade to yield two halves. The two implants were molded into cylindrical shapes prior to insertion and were positioned bilaterally in the posterolateral space of each test subject. Each implant contained 20 mg Oxy133. Radiographs were taken roughly 10 minutes after the procedure, 4 weeks after the procedure, and 8 weeks after the procedure. […] Fusion was tested at 8-week sacrifice by manual palpation. […] A dry composition of a matrix containing Oxy133, collagen and ceramic as described herein was prepared and wetted with sterile water to be implanted in rat spines as shown in FIG. 6. The wetted matrix was cut in half with a razor blade to yield two halves. The two implants were molded into cylindrical shapes prior to insertion and were positioned bilaterally in the posterolateral space of each test subject. Each implant contained 125 mg Oxy133. Radiographs were taken roughly 10 minutes after the procedure, 4 weeks after the procedure, and 8 weeks after the procedure. […] Fusion was tested at 8-week sacrifice by manual palpation.

CC(C)CCC[C@](C)(O)[C@H]1CC[C@H]2[C@@H]3CC=C4C[C@@H](O)CC[C@]4(C)[C@H]3CC[C@@]21C [20(S)-hydroxycholesterol]
osteogenic differentiation [1]: induce osteogenic differentiation

CC(C)CC[C@@H](O)[C@@H](C)[C@H]1CC[C@H]2[C@@H]3CC=C4C[C@@H](O)CC[C@]4(C)[C@H]3CC[C@]12C [22(R)-hydroxycholesterol]
osteogenic differentiation [1]: induce osteogenic differentiation

CC(C)CC[C@H](O)[C@@H](C)[C@H]1CC[C@H]2[C@@H]3CC=C4C[C@@H](O)CC[C@]4(C)[C@H]3CC[C@]12C [22(S)-hydroxycholesterol]
osteogenic differentiation [1]: induce osteogenic differentiation

CCCCCC[C@](C)(O)[C@H]1CC[C@H]2[C@@H]3C[C@H](O)[C@H]4C[C@@H](O)CC[C@]4(C)[C@H]3CC[C@@]21C [Oxy133, (3S,5S,6S,8R,9S,10R,13S,14S,17S)-17-((S)-2-hydroxyoctan-2-yl)-10,13-dimethylhexadecahydro-1H-cyclopenta[a]phenanthrene-3,6-diol]
bone growth / bridging bone on radiographs ([2]; each implant 20 mg Oxy133): Bone growth in rat test subjects can be seen; also recorded: promoted bridging bone across the transverse processes of L3-L5 | spinal fusion by manual palpation evaluation of the spine segments ([2]; each implant 20 mg Oxy133): yielded spinal fusion; also recorded: limited flexibility | bone growth / bridging bone on radiographs ([2]; each implant 125 mg Oxy133): Bone growth in rat test subjects can be seen; also recorded: promoted bridging bone across the transverse processes of L3-L5 | spinal fusion by manual palpation evaluation of the spine segments ([2]; each implant 125 mg Oxy133): yielded spinal fusion; also recorded: limited flexibility | fusion observed (share of rat spines fused, manual palpation) ([2]; each implant 20 mg Oxy133): 100% | fusion observed (share of rat spines fused, manual palpation) ([2]; each implant 125 mg Oxy133): 100%
